Assay results reported in BindingDB's records for doi:10.1021/jm030336u (University of Tennessee At Memphis, 2004).

Target: T1, Androgen receptor (Rattus norvegicus, UniProt P15207)
T1 sequence (P15207 whole entry): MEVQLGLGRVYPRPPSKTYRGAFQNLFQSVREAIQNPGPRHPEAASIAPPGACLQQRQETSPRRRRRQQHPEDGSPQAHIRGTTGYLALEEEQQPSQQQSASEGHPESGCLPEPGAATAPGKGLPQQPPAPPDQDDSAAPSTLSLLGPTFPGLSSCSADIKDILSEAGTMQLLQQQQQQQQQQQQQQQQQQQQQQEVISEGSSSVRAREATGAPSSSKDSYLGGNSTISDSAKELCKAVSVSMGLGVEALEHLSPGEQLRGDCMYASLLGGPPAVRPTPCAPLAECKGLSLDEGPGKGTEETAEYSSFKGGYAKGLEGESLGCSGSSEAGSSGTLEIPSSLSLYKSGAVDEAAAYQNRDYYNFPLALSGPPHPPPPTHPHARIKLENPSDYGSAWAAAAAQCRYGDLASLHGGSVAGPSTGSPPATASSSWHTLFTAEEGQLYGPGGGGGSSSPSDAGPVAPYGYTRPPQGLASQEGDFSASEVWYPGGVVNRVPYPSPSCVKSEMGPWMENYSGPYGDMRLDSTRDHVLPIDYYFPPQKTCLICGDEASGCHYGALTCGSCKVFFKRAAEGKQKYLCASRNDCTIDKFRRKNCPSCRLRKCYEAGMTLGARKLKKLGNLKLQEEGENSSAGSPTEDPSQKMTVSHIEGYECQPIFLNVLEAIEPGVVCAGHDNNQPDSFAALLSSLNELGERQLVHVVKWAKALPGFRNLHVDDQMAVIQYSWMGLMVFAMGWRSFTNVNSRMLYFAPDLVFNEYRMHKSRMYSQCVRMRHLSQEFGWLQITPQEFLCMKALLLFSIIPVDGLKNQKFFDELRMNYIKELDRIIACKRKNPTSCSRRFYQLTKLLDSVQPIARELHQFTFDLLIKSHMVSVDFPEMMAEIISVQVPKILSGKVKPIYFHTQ
Assay: Competitive Radioligand Displacement Assay
Conditions: pH 7.4; 4 °C

Q: Which Ki does the source give for `CC(=O)Nc1ccc(SC[C@](C)(O)C(=O)Nc2ccc([N+](=O)[O-])c(C(F)(F)F)c2)cc1` [(2R)-3-[(4-acetamidophenyl)sulfanyl]-2-hydroxy-2-methyl-N-[4-nitro-3-(trifluoromethyl)phenyl]propanamide] here?
A: 4.9 nM

Q: Which Ki does the source give for `C[C@](O)(COc1ccc(I)cc1)C(=O)Nc1ccc([N+](=O)[O-])c(C(F)(F)F)c1` [(2S)-2-hydroxy-3-(4-iodophenoxy)-2-methyl-N-[4-nitro-3-(trifluoromethyl)phenyl]propanamide] here?
A: 30 nM

Q: `CC(O)(COc1ccc([N-]C#[S+])cc1)C(=O)Nc1ccc([N+](=O)[O-])c(C(F)(F)F)c1` [(2S)-2-hydroxy-3-(4-isothiocyanatophenoxy)-2-methyl-N-[4-nitro-3-(trifluoromethyl)phenyl]propanamide] was tested. Which Ki did it give?
A: 4.62 nM

Q: `C[C@](O)(COc1ccc(Br)cc1)C(=O)Nc1ccc([N+](=O)[O-])c(C(F)(F)F)c1` [(2S)-3-(4-bromophenoxy)-2-hydroxy-2-methyl-N-[4-nitro-3-(trifluoromethyl)phenyl]propanamide] was tested. Which Ki did it give?
A: 11.6 nM
